Among the test systems are BT-549 breast; IGROV1 ovarian; KM12 colon; NCI-H226 lung; NCI/ADR-RES ovarian; PC-3 prostate; SK-MEL-2 melanoma; SK-OV-3 ovarian; HOP-62 NSCLC; MOLT-4 leukemia.
Common to all, as to experiment: inhibition of tumour cell growth, NCI panel, 48 h

Values joined by “and” are separate entries in the source; they are usually repeats but may differ in a detail not shown here. Equal entries are not always repeated.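 Tested at 5 concentrations; 48 h exposure; 96-well plates; endpoints linearly interpolated, else capped at highest concentration. The concentration for 50% growth inhibition is given as GI50. TGI: concentration producing complete growth inhibition.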

Regarding `COc1ccc(C2c3cc4c(c(OC)c3CC3OCC(=O)C32)OCO4)cc1OC` (stereo not given), the GI50 in the assay on BT-549 breast, in the assay on KM12 colon, in the assay on NCI-H226 lung, with NCI/ADR-RES ovarian, in the assay on PC-3 prostate and in the assay on SK-OV-3 ovarian was under 0.01 µM each time. Further, the TGI with BT-549 breast was over 100 µM; with IGROV1 ovarian, over 100 µM; with KM12 colon, 0.221 µM and 1.01 µM; with NCI-H226 lung, over 100 µM; in the assay on NCI/ADR-RES ovarian, 28.4 µM; in the assay with PC-3 prostate, over 100 µM. The TGI in the assay on SK-MEL-2 melanoma and with SK-OV-3 ovarian was over 100 µM each time.
With `CC(=O)NC1CCCN(O)C(=O)/C=C(/C)CCOC(=O)C(NC(C)=O)CCCN(O)C(=O)/C=C(/C)CCOC(=O)C(NC(C)=O)CCCN(O)C(=O)/C=C(/C)CCOC1=O.[Fe]` (stereo not given), the GI50 in the assay with BT-549 breast, with HOP-62 NSCLC, in the assay with IGROV1 ovarian, in the assay on KM12 colon, with MOLT-4 leukemia and in the assay with NCI/ADR-RES ovarian was over 100 µM each time. The GI50 with PC-3 prostate and with SK-MEL-2 melanoma was over 100 µM each time. The TGI in the assay with BT-549 breast, in the assay with HOP-62 NSCLC, in the assay with IGROV1 ovarian, in the assay on KM12 colon, in the assay with MOLT-4 leukemia and in the assay with NCI/ADR-RES ovarian was over 100 µM throughout. Moreover, the TGI in the assay with PC-3 prostate and in the assay with SK-MEL-2 melanoma was over 100 µM in each case.
As to `Cc1ccc(C2NC(=S)N3C(c4ccc(C)cc4)NC(=S)N23)cc1` (stereo not given), the GI50 in the assay on BT-549 breast was 10.3 µM; with HOP-62 NSCLC, 5.89 µM; in the assay with IGROV1 ovarian it was 8.5 µM; in the assay with KM12 colon, 4.04 µM; in the assay with MOLT-4 leukemia, 5.82 µM; in the assay on NCI-H226 lung it was 6.85 µM. Also, the GI50 in the assay with NCI/ADR-RES ovarian is 2.33 µM; in the assay with PC-3 prostate, 3.81 µM; in the assay with SK-MEL-2 melanoma, 3.4 µM; in the assay with SK-OV-3 ovarian, 4.77 µM. In addition, the TGI in the assay on BT-549 breast was found to be 23.7 µM; in the assay with HOP-62 NSCLC, 20.1 µM; with IGROV1 ovarian, 22 µM; with KM12 colon it was 17.4 µM; with MOLT-4 leukemia, 18.9 µM; in the assay with NCI-H226 lung, 29 µM. The TGI with NCI/ADR-RES ovarian was 6.19 µM; with PC-3 prostate, 16.9 µM; in the assay on SK-MEL-2 melanoma, 12.1 µM; in the assay with SK-OV-3 ovarian, 15.5 µM.
Take `Cc1ccc(-n2nnc3c(sc4ccccc43)c2=O)cc1`: the GI50 was over 100 µM in the assay on BT-549 breast; 3.8 µM in the assay with HOP-62 NSCLC; 4.16 µM in the assay with IGROV1 ovarian; 3.81 µM in the assay on KM12 colon; over 100 µM with MOLT-4 leukemia; 9.55 µM in the assay with NCI-H226 lung. For the same molecule, the GI50 in the assay on NCI/ADR-RES ovarian is 9.35 µM; in the assay on PC-3 prostate it was 7.73 µM; in the assay with SK-MEL-2 melanoma, 99 µM; with SK-OV-3 ovarian, 3.54 µM. Also, the TGI is over 100 µM with BT-549 breast; 26.5 µM with HOP-62 NSCLC; over 100 µM in the assay on IGROV1 ovarian; over 100 µM with KM12 colon; over 100 µM in the assay on MOLT-4 leukemia; over 100 µM in the assay with NCI-H226 lung. Further, the TGI in the assay with NCI/ADR-RES ovarian was over 100 µM; in the assay on PC-3 prostate, over 100 µM; in the assay with SK-MEL-2 melanoma it was over 100 µM; in the assay with SK-OV-3 ovarian, 19.4 µM.
For the molecule `O=C(NC1CCNCC1)c1[nH]ncc1NC(=O)c1c(Cl)cccc1Cl`, the GI50 was 0.588 µM and 0.471 µM in the assay on BT-549 breast; 0.451 µM and 0.414 µM in the assay on HOP-62 NSCLC; 0.681 µM and 0.362 µM with IGROV1 ovarian; 0.297 µM and 0.305 µM with KM12 colon; 0.357 µM and 0.329 µM in the assay with MOLT-4 leukemia; 0.346 µM and 0.325 µM in the assay with NCI-H226 lung. Besides, the GI50 in the assay with NCI/ADR-RES ovarian is over 100 µM; with PC-3 prostate, 0.332 µM and 0.323 µM; in the assay with SK-MEL-2 melanoma, 0.216 µM and 0.303 µM; in the assay on SK-OV-3 ovarian, 0.784 µM and 1.42 µM. In addition, the TGI in the assay with BT-549 breast is 7.89 µM; in the assay with HOP-62 NSCLC it was over 100 µM; with IGROV1 ovarian, over 55.2 µM; in the assay on KM12 colon it was 1.66 µM and > 10 µM; in the assay on MOLT-4 leukemia it was 1.49 µM and > 10 µM; with NCI-H226 lung, 4.01 µM and 2.32 µM. In addition, the TGI was over 100 µM in the assay with NCI/ADR-RES ovarian; 5.01 µM and > 10 µM in the assay with PC-3 prostate; 0.519 µM and 1.14 µM in the assay with SK-MEL-2 melanoma; over 100 µM in the assay with SK-OV-3 ovarian.
Take `COc1cc2c(cc1OCc1ccccc1)N=C[C@@H]1C[C@@H](F)CN1C2=O`: the TGI with BT-549 breast was 0.785 µM; in the assay with HOP-62 NSCLC, 2.7 µM; in the assay on IGROV1 ovarian it was 0.411 µM; with KM12 colon, 4.05 µM; in the assay with MOLT-4 leukemia, over 100 µM; in the assay with NCI-H226 lung, 0.447 µM. The TGI came to 1.09 µM in the assay with NCI/ADR-RES ovarian, 1.02 µM in the assay with PC-3 prostate and 45.8 µM in the assay on SK-OV-3 ovarian. Further, the GI50 in the assay with HOP-62 NSCLC is 0.236 µM; with KM12 colon it was 1.55 µM; in the assay with MOLT-4 leukemia, 0.353 µM; in the assay with NCI-H226 lung, 0.197 µM; in the assay on NCI/ADR-RES ovarian it was 0.265 µM; with SK-MEL-2 melanoma, 0.279 µM. Further, the GI50 in the assay on SK-OV-3 ovarian is 2.81 µM.
`O=C(O)c1ccccc1-c1ccccc1C(=O)Nc1ccc2c(c1)Cc1ccccc1-2`: the TGI with BT-549 breast was 69.4 µM; in the assay with HOP-62 NSCLC, over 100 µM; with IGROV1 ovarian it was over 100 µM; in the assay with KM12 colon it was over 100 µM; in the assay on NCI-H226 lung, over 100 µM; in the assay with NCI/ADR-RES ovarian it was over 100 µM. Also, the TGI in the assay on PC-3 prostate was over 100 µM; in the assay with SK-MEL-2 melanoma, 50.7 µM; in the assay on SK-OV-3 ovarian, over 100 µM.
As for `Nc1cccc2c1CN(C1CCC(=O)NC1=O)C2=O` (stereo not given), the GI50 with BT-549 breast, in the assay on HOP-62 NSCLC, with IGROV1 ovarian, in the assay on KM12 colon, in the assay with MOLT-4 leukemia and in the assay on NCI-H226 lung was over 100 µM throughout. Further, the GI50 in the assay with NCI/ADR-RES ovarian, in the assay with PC-3 prostate, with SK-MEL-2 melanoma and with SK-OV-3 ovarian was over 100 µM each time. Besides, the TGI in the assay on BT-549 breast, with HOP-62 NSCLC, in the assay with IGROV1 ovarian, with KM12 colon, with MOLT-4 leukemia and in the assay on NCI-H226 lung was over 100 µM throughout. For the same molecule, the TGI in the assay on NCI/ADR-RES ovarian, with PC-3 prostate, in the assay on SK-MEL-2 melanoma and in the assay with SK-OV-3 ovarian was over 100 µM in each case.
